According to patent US12643910B2, “Substituted pyrazolo[3,4-b]pyridines as ectonucleotide pyrophosphatase/phosphodiesterase 1 (ENPP1) modulators” (SANFORD BURNHAM PREBYS MEDICAL DISCOVERY INSTITUTE, priority 2019, dated 2026):

Key:
human ENPP1 = biological target: T1, human ENPP1 (Homo sapiens, UniProt P22413); assay: ENPP1 assay with ATP substrate (Transcreener AMP2/GMP2 TR-FRET); type: biochemical; conditions: 1 hour at room temperature
T1 construct: made in house
T1 sequence (P22413 1-925): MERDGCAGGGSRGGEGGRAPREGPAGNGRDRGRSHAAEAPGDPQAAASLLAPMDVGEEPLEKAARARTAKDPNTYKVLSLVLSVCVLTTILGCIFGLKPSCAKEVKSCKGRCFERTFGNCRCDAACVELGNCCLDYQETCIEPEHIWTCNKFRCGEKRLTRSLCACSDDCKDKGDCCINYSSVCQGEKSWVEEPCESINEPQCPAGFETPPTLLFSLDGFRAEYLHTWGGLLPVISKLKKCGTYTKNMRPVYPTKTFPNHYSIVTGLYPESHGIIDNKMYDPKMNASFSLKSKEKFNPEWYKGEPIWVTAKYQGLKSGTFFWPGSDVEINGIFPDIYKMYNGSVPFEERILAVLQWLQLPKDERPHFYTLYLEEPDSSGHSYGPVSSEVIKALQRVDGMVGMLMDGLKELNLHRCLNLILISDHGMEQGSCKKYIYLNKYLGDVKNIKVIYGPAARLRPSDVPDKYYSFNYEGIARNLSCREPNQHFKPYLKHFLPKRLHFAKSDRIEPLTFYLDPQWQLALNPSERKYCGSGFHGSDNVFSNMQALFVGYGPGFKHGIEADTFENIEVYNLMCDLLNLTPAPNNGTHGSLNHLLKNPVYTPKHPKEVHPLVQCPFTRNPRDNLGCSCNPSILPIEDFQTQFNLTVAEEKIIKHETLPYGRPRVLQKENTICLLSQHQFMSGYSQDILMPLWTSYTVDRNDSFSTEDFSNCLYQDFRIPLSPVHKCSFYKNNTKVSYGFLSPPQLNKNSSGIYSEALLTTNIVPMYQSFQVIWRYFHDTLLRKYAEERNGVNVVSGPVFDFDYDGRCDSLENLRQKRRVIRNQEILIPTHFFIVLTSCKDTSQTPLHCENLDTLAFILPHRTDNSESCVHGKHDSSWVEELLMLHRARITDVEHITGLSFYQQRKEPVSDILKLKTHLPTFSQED
Procedure, shortened: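 Reaction ran 1 h at room temperature in pH 7.5 Tris with MgCl2, TCEP, Tween 20 and 1% DMSO. ATP was added as a 300 nM stock and enzyme as an 8.5 μM stock. After EDTA stop, AMP was read by TR-FRET tracer displacement. Percent inhibition used enzyme/no-enzyme controls; IC50 was fitted with a variable slope.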

ENPP3 = biological target: T2, ENPP3 (Homo sapiens, UniProt O14638); assay: ENPP3 Km ATP assay; type: biochemical; conditions: ATP at Km
T2 sequence (O14638 1-875): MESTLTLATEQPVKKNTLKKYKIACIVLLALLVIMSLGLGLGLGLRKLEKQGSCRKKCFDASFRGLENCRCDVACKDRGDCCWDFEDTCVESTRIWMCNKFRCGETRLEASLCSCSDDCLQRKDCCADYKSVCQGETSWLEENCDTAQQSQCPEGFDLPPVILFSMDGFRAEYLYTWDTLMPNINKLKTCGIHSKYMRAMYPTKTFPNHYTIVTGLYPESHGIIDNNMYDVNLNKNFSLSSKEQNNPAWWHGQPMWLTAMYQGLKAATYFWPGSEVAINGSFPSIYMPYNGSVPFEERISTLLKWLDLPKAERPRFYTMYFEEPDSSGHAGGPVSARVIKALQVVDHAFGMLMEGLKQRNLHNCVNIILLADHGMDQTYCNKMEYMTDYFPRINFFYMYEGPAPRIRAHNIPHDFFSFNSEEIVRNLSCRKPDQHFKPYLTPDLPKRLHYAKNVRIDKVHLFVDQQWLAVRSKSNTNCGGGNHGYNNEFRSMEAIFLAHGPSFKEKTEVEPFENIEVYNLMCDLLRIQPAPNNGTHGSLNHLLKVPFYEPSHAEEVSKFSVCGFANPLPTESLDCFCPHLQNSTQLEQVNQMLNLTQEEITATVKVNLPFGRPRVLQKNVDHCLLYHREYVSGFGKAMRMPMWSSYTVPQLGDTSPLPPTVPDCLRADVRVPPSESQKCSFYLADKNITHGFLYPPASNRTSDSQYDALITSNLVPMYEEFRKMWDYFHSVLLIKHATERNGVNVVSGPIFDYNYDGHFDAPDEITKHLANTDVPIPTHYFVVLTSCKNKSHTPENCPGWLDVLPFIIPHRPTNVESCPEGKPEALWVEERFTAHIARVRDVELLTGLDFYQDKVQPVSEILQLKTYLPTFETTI

Structure (SMILES)	IC50 (human ENPP1) [µM]	IC50 (ENPP3) [µM]
Cc1cc(CNc2ncnc3c2cnn3C)ccc1S(N)(=O)=O [Example 2.46, 2-Methyl-4-(((1-methyl-1H-pyrazolo[3,4-d]pyrimidin-4-yl)amino)methyl)-benzenesulfonamide]	1 to 20	1 to 20
CN(C)CCN(C)c1nc(NCc2ccc(S(N)(=O)=O)cc2)c2c(-c3ccccc3)csc2n1 [Example 1.58, 4-((2-((N-2-(Dimethylamino)ethyl)-N-methylamino)-5-phenylthieno[2,3-d]pyrimidin-4-yl)aminomethyl)benzenesulfonamide]	< 0.1	< 0.1
Cn1ncc2c(NCc3ccc(S(N)(=O)=O)c(Cl)c3)ccnc21 [Example 2.68, 2-Chloro-4-(((1-methyl-1H-pyrazolo[3,4-b]pyridin-4-yl)amino)methyl)-benzenesulfonamide]	0.1 to 1	1 to 20
NS(=O)(=O)c1ccc(CNc2ncnc3scc(C4=CCCCC4)c23)cc1 [Example 1.69, 4-((5-(1-Cyclohexenyl)thieno[2,3-d]pyrimidin-4-yl)aminomethyl)benzenesulfonamide]	> 20	0.1 to 1
Cc1csc2c(N3CCC(NCCc4ccc(F)cc4)CC3)ncnc12 [Example 3.44, N-(4-Fluorophenethyl)-1-(7-methylthieno[3,2-d]pyrimidin-4-yl)piperidin-4-amine]	0.1 to 1	> 20
NS(=O)(=O)c1ccc(CNc2nc(NCCO)nc3scc(-c4ccccc4)c23)cc1 [Example 1.50, 4-((2-(2-Hydroxyethylamino)-5-phenylthieno[2,3-d]pyrimidin-4-yl)aminomethyl)-benzenesulfonamide]	< 0.1	< 0.1
Cn1ncc2c(NCc3ccc(S(N)(=O)=O)c(C(F)(F)F)c3)ncnc21 [Example 2.41, 4-(((1-Methyl-1H-pyrazolo[3,4-d]pyrimidin-4-yl)amino)methyl)-2-(trifluoromethyl)-benzenesulfonamide]	0.1 to 1	1 to 20
Cn1cnc2c(NCc3ccc(S(N)(=O)=O)cc3)ncnc21 [Example 2.8, 4-(((9-Methyl-9H-purin-6-yl)amino)methyl)benzenesulfonamide]	> 20	1 to 20
Cn1ncc2c(NCc3ccc(S(N)(=O)=O)cc3F)ccnc21 [Example 2.64, 3-Fluoro-4-(((1-methyl-1H-pyrazolo[3,4-b]pyridin-4-yl)amino)methyl)benzenesulfonamide]	< 0.1	0.1 to 1
Cc1cc(CNc2ccnc3c2cnn3C)ccc1S(N)(=O)=O [Example 2.70, 2-Methyl-4-(((1-methyl-1H-pyrazolo[3,4-b]pyridin-4-yl)amino)methyl)-benzenesulfonamide]	0.1 to 1	1 to 20
CN1CCC(n2ncc3c(NCc4ccc(S(N)(=O)=O)cc4)ncnc32)CC1 [Example 2.43, 4-(((1-(1-Methylpiperidin-4-yl)-1H-pyrazolo[3,4-d]pyrimidin-4-yl)amino)methyl)-benzenesulfonamide]	> 20	1 to 20
Cn1ncc2c(NCc3ccc(S(N)(=O)=O)s3)nc(Cl)nc21 [Example 2.85, 5-((6-Chloro-1-methyl-1H-pyrazolo[3,4-d]pyrimidin-4-yl)aminomethyl)thiophene-2-sulfonamide]	0.1 to 1	0.1 to 1
Cc1ccc(CCCNC2CCN(c3ncnc4c(C)csc34)CC2)cc1 [Example 3.4, 1-(7-Methylthieno[3,2-d]pyrimidin-4-yl)-N-(3-(p-tolyl)propyl)piperidin-4-amine]	0.1 to 1	> 20
CN(C)CCNc1nc(NCc2ccc(S(N)(=O)=O)cc2)c2c(-c3ccccc3)csc2n1 [Example 1.60, 4-((2-(2-Dimethylamino)ethylamino-5-phenylthieno[2,3-d]pyrimidin-4-yl)aminomethyl)-benzenesulfonamide]	< 0.1	< 0.1
NS(=O)(=O)N1CCC(CNc2nc(-c3ccccn3)nc3scc(-c4ccccc4)c23)CC1 [Example 1.67, 4-((5-Phenyl-2-(2-pyridyl)thieno[2,3-d]pyrimidin-4-yl)aminomethyl)-1-piperidinesulfonamide]	0.1 to 1	1 to 20
CCN(C)c1nc(NCc2ccc(S(N)(=O)=O)cc2)c2cnn(C)c2n1 [Example 2.31, 4-(((6-(Ethyl(methyl)amino)-1-methyl-1H-pyrazolo[3,4-d]pyrimidin-4-yl)amino)methyl)-benzenesulfonamide]	1 to 20	0.1 to 1
NS(=O)(=O)c1ccc(CNc2nc(-c3cccnc3)nc3scc(-c4ccccc4)c23)s1 [Example 1.30, 5-(((5-Phenyl-2-(pyridin-3-yl)thieno[2,3-d]pyrimidin-4-yl)amino)methyl)thiophene-2-sulfonamide]	1 to 20	> 20
COc1nc(NCc2ccc(S(N)(=O)=O)cc2)c2cnn(C)c2n1 [Example 2.94, 4-((6-Methoxy-1-methyl-1H-pyrazolo[3,4-d]pyrimidin-4-yl)aminomethyl)-benzenesulfonamide]	< 0.1	0.1 to 1
Cn1ncc2c(NCc3ccc(S(N)(=O)=O)cc3)nc(N)nc21 [Example 2.37, 4-(((6-Amino-1-methyl-1H-pyrazolo[3,4-d]pyrimidin-4-yl)amino)methyl)-benzenesulfonamide]	0.1 to 1	0.1 to 1
Cc1csc2c(N3CCC(NC(=O)CCc4ccc(F)cc4)CC3)ncnc12 [Example 3.20, 3-(4-Fluorophenyl)-N-(1-(7-methylthieno[3,2-d]pyrimidin-4-yl)piperidin-4-yl)propanamide]	> 20	> 20
Cc1ccc(CNc2nc(-c3ccccn3)nc3scc(-c4ccccc4)c23)o1 [Example 1.32, N-((5-methylfuran-2-yl)methyl)-5-phenyl-2-(pyridin-2-yl)thieno[2,3-d]pyrimidin-4-amine]	1 to 20	> 20
CCSc1nc(NCc2ccc(S(N)(=O)=O)cc2)c2cnn(CC)c2n1 [Example 2.109, 4-((1-Ethyl-6-(ethylsulfanyl)-1H-pyrazolo[3,4-d]pyrimidin-4-yl)aminomethyl)-benzenesulfonamide]	< 0.1	0.1 to 1
Cn1ncc2c(NCc3ccc(S(N)(=O)=O)nc3)ccnc21 [Example 2.72, 5-(((1-Methyl-1H-pyrazolo[3,4-b]pyridin-4-yl)amino)methyl)pyridine-2-sulfonamide]	< 0.1	0.1 to 1
c1ccc(-c2csc3nc(-c4ccccn4)nc(NCc4cccnc4)c23)cc1 [Example 1.1, 5-Phenyl-2-(pyridin-2-yl)-N-(pyridin-3-ylmethyl)thieno[2,3-d]pyrimidin-4-amine]	1 to 20	> 20
Cn1nc(Br)c2c(NCc3ccc(S(N)(=O)=O)cc3)nc(Cl)nc21 [Example 2.87, 4-((3-Bromo-6-chloro-1-methyl-1H-pyrazolo[3,4-d]pyrimidin-4-yl)aminomethyl)-benzenesulfonamide]	< 0.1	< 0.1
CN(Cc1ccccc1)c1nc(NCc2ccc(S(N)(=O)=O)cc2)c2cnn(C)c2n1 [Example 2.32, 4-(((6-(Benzyl(methyl)amino)-1-methyl-1H-pyrazolo[3,4-d]pyrimidin-4-yl)amino)methyl)-benzenesulfonamide]	> 20	0.1 to 1
